# Source: patent publication US7803844B2, “Composition for preventing and/or treating bone disease, physiologically functional or health food containing thereof, and pharmaceutical containing thereof as active ingredients” (Erina Co. Inc., priority 2004, dated 2010)
# Like-named read-outs stand apart in the source and are kept apart here.
# What was measured:
# [1] = tested on: M-CSF dependent cells derived from mice bone marrow cells; assay: Pit formation assay of mature osteoclast; format: cell-based, mouse; conditions: 10 μM, 1 day, calcium phosphate apatite coated plate
# Experimental: Alternatively, the bone marrow cells were obtained form the shanks and femurs from ddy mice of 6 to 9 week age, similarly to the methods employed in the example 3.
# Obtained bone marrow cells were suspended in 10% FBS-MEM including 100 U/mL of sodium penicillin G, 100 μg/mL of streptomycin sulfate, 50 ng/mL of M-CSF, and 1 ng/mL of TGF-β. Then, the suspension was plated at 0.85×10^6 cells/0.1 mL/well into the 16 well multi slide plate (BioCoat Osteologic Bone Cell Culture System; BD Biosciences, Cat. No.: 354609) which was coated by calcium phosphate apatite, and incubated under the presence of 5% CO2, at 37° C.
# After three days incubation, the medium was exchanged to that including 50 ng/mL of M-CSF and 100 ng/mL of osteoclast differentiation factor (ODF/RANKL). Subsequently, the plates were incubated under the same condition until the formation of actin ring, the osteoclast activated structure, was confirmed. After the actin ring was formed, honokiol prepared as the same concentration used in the example 1 is added, and incubated further one day. To the control group, the solvent without honokiol was added.
# After 1 day incubation from the addition of honokiol, the medium in the well was discarded, and the plate was washed by using phosphate buffered saline (PBS); then, 0.1 mL of 0.1 M NaOH is added to every well to dissolve the cells in it. […]
# [2] = tested on: MC3T3-E1 cells; assay: Osteoblast differentiation induction assay, ALP activity; format: cell-based, mice; conditions: 3 to 30 μM, 7 days
# Experimental: As an evaluation method for the effect against the differentiation of osteoblast, MC3T3-E1 cell osteoblast differentiation induction assay was used. In the assay, the activity of alkaline phosphatase (ALP), the early stage differentiation marker enzyme of osteoblast, was determined, and the staining utilizing the activity (ALP staining) was performed. Expression level of osteocalcin, which is the marker of the differentiated osteoblast, was determined by using the EIA kit described above. Furthermore, in order to know the cytotoxicity, the cell viability was determined by using MTT assay. MC3T3-E1 cells were plated into the wells of the 96-well microplate at the concentration of 4×10^3 cells/well, and incubated two days under the presence of 5% of CO2, at 37° C. until cells became confluent in the well. […] The medium was exchanged every 3 or 4 days. ALP activity was determined as follows. At first, MC3T3-E1 cells were cultured for 7 days under the same condition as described above; then the medium was removed, and washed by using PBS. After that cells were fixed by using methanol and the dish was dried. […] The reaction was terminated by adding 100 μL of 0.1 N NaOH, and released p-nitrophenol was determined by measuring absorbance at the wave length of 405 nm, by using the plate reader for obtaining ALP activity. […]
# [3] = tested on: M-CSF dependent cells derived from mice bone marrow cells (BMM); assay: Inhibition assay II of the early stage differentiation of osteoclast (TRAP activity); format: cell-based, mouse; conditions: for IC50: Bone marrow cell, read-out: IC50, inhibition of differentiation from M-CSF dependent bone marrow cells to osteoclast induced by RANKL; for TRAP activity (control %): 1.5 days, honokiol 3-30 μM, magnolol 20-60 μM
# Experimental: Mouse bone marrow cells were obtained from femurs and shanks of male ddy mice from 6 to 9 week age (Chubu Kagaku Shizai Co. Ltd.)
# From 6 to 9 week ages of ddy mice, the femurs and shanks were excised. The bone row cells were extruded from these bones by using a syringe with 22 G×1 and ¼ gauge needle to obtain.
# Obtained bone marrow cells were suspended in 10% FBS-MEM supplemented with 100 μg/mL of sodium streptomycin, 100 U/mL of sodium penicillin G, 50 ng/mL of M-CSF, and 1 ng/mL of TGF-β, and then inoculated to each well of the 96-well microplate at the cell concentration of 1×10^6 cells/0.1 mL/well. Then, the plates were incubated under the presence of 5% CO2, at 37° C.
# After 3 days incubation, the culture medium was exchanged to that including 50 ng/mL of M-CSF and 50 ng/mL of osteoclast differentiation factor (DF/RANKL), simultaneously honokiol prepared as the same concentration as used in the example 1 was added. The medium of the control group was exchanged that including M-CSF and ODF/RANKL, but no honokiol. The plates were further incubated under the condition of the presence of 5% CO2, at 37° C.
# After 1.5 days from the medium exchange, tartrate resistant acid phosphatase activity, the early stage differentiation marker, was measured. Medium in each well was discarded and washed plate with PBS, the cells in the well was fixed for 15 minutes by using 10% HCHO/PBS. Furthermore, the cells were fixed by using ethanol-acetone (1:1) mixture. After fixation, the fixed mixture was discarded and dried at room temperature. After drying, tartrate resistant acid phosphatase (TRAP) of the cells in each well was measured and stained similarly to those in the example 1.
# The inhibition assay of the early stage differentiation of osteoclast was carried out similarly to the described above, except honokiol used in the above mentioned (3-2) was substituted to magnolol, and its concentration was from 20 to 60 μM.
# [4] = tested on: M-CSF dependent cells derived from mice bone marrow cells (BMM); assay: Cell proliferation counting assay (XTT) in bone marrow derived cells
# Experimental: Alternatively, the cell proliferation counting assay was performed as the same as that in the example 1, the cell viability was obtained. In FIG. 2A, the cell viability was shown as white columns.
# [5] = tested on: acid phosphatase; conditions: cited from earlier work
# [6] = tested on: MφRAW264 cells; assay: Proliferated cell number counting assay (XTT cell viability)
# Experimental: As a non-RI method for determining cell proliferation and cell viability, color reaction by using XTT was employed. MφRAW264 cells were suspended in 10% FBS-MEM, and plated into the 96-well microplate at 0.4×10^4 cells/0.1 mL; then incubated for 1 day. Subsequently, 10% FBS-MEM solution of osteoclast differentiation factor (ODF/RANKL), 100 ng/mL, was added into 0.1 mL per well at final concentration of RANKL, 50 ng/mL. At the same time, honokiol solution at respective concentration was added into the wells. For the control wells, equal volume of methanol not including honokiol was added.
# After 3 days incubation, the proliferated cells were counted by using commercially available Cell Proliferation Kit II (Roche Diagnostics Inc., Cat. No. 1 465 015) to obtain the cell viability. The procedure was carried out according to the instruction manual attached, and brief summaries were as follows.
# XTT labeling reagent and electron coupling reagent included in the kit were mixed at the ratio of 50:1, and 50 μL of mixture was added per 0.1 mL of medium in each well; then reacted for 4 hours at 37° C. After the termination of the reaction, absorbance at 492 nm of the wave length was measured by using ELISA plate reader (Dainippon Pharma Co.), wherein the reference wave length was 690 nm.
# In the above-mentioned (2-2), the same cell proliferation counting assay II was performed instead of honokiol to magnolol and their concentration used was at the range from 20 to 60 μM.
# [7] = tested on: MφRAW264 cells; assay: Inhibition assay I of the early phase differentiation of osteoclast (TRAP activity); format: cell-based; conditions: for TRAP activity (control %): MφRAW264 cells stimulated by 50 ng/mL ODF/RANKL, honokiol 3-30 μM, magnolol 20-60 μM; for IC50: Osteoclast, 72 h, read-out: IC50, inhibition of MφRAW264 cells to osteoclast by RANKL
# Text: Macrophage RAW264 cell line (RIKEN. cell No. CB0535, herein below, referred to as “MφRAW264”), which may differentiate to osteoclast-like cells, was used in the inhibition assay of the early phase differentiation of osteoclast. α-MEM (Invitrogen Co., Cat. No. 11900-024) including 10% of fetal bovine serum (Asahi Technoglass Co., (IWAKI), Cat. No. IWK-500) was used for cultivating MφRAW264. Osteoclast differentiation factor (ODF/RANKL) was purchased from Pepro Tech Inc., Cat. No. 310-01. Inhibition assay I of the early phase differentiation of osteoclast was performed for evaluating the inhibition level of the bone resorption in vitro, the differentiation assay of osteoclast from MφRAW264 cells in early stage. Results of the osteoclast assay were evaluated by determining tartrate resistant acid phosphatase (TRAP) activity, an early stage differentiation marker, and TRAP staining. By using these two indices, activities of flavones from MφRAW264 cells to osteoclast are quantitatively evaluated. MφRAW264 cells were suspended in a α-MEM supplemented 10% of fetal bovine serum (FBS), which is referred to as “10% FBS-MEM herein below”, and plated at 1×10^5 cells/10 mL in 100 mm φ dishes. Then, the dishes were incubated under the presence of 5% of CO2, at 37° C. for 3 days. After confirmed that the plated cells in the dishes became confluent, the incubation was finished. Subsequently, when the cells became confluent, they were treated by using 0.05% of trypsin and Hank's balanced salt solution containing 0.53 mM of EDTA (0.05% Trypsin-0.53 mM EDTA/HBSS (Invitrogen Co., Cat. No. 25300-054) to scrape them, and then suspended in 10% FBS-MEM to plate 0.4×10^4 cells/0.1 mL per each well of 96-well microplates. Then, the plates were incubated one day under the same condition as described above. Osteoclast differentiation factor (ODF/RANKL) was dissolved in 10% FBS-MEM to prepare 100 ng/mL of solution. Alternatively, a stock solution of honokiol was prepared at the concentration of 10 mM in methanol, and stored at −20° C. […] Equal volume of methanol was solely added into the control wells. Honokiol used in the following experiments were the solutions having each concentration prepared as described above. […] Equal volume of methanol without honokiol was added into the control wells. […] Incubation medium in each well of the 96-well microplate was discarded. […] After drying, tartrate resistant acid phosphatase activity was determined (hereinafter, it is referred to as “TRAP assay”), and staining of cells in the well was performed. […] Thirty minutes later, the reaction was terminated by adding 0.1 mL of 0.1 M NaOH, and released p-nitrophenol was determined by the spectrophotometer (Dainippon Pharmaceutical Co. Ltd.) at wave length 405 nm. […]
# [8] = tested on: MC3T3-E1 cells; assay: Cell viability after osteoblast differentiation induction (MTT assay); format: cell-based, mice; conditions: 30 μM, 7 days
# Experimental: As an evaluation method for the effect against the differentiation of osteoblast, MC3T3-E1 cell osteoblast differentiation induction assay was used. In the assay, the activity of alkaline phosphatase (ALP), the early stage differentiation marker enzyme of osteoblast, was determined, and the staining utilizing the activity (ALP staining) was performed. Expression level of osteocalcin, which is the marker of the differentiated osteoblast, was determined by using the EIA kit described above. Furthermore, in order to know the cytotoxicity, the cell viability was determined by using MTT assay. MC3T3-E1 cells were plated into the wells of the 96-well microplate at the concentration of 4×10^3 cells/well, and incubated two days under the presence of 5% of CO2, at 37° C. until cells became confluent in the well. […] The medium was exchanged every 3 or 4 days. In order to determine the cell viability, MC3T3-E1 cells were cultured for 7 days under the condition as described above. After that, MTT reagent was added into the well at the 1/10 volume of the medium in the well, and reacted for 1 hour at 37° C. Then, the medium was removed, and generated formazan was dissolved in DMSO; then its absorbance was measured by using microplate reader at the wave length of 570 nm (reference wave length was 630 nm).
# [9] = tested on: MC3T3-E1 cells; assay: Osteoblast differentiation induction assay, osteocalcin concentration (EIA); format: cell-based, mice; conditions: 3 to 30 μM, 14 days, culture supernatant
# Experimental: As an evaluation method for the effect against the differentiation of osteoblast, MC3T3-E1 cell osteoblast differentiation induction assay was used. In the assay, the activity of alkaline phosphatase (ALP), the early stage differentiation marker enzyme of osteoblast, was determined, and the staining utilizing the activity (ALP staining) was performed. Expression level of osteocalcin, which is the marker of the differentiated osteoblast, was determined by using the EIA kit described above. Furthermore, in order to know the cytotoxicity, the cell viability was determined by using MTT assay. MC3T3-E1 cells were plated into the wells of the 96-well microplate at the concentration of 4×10^3 cells/well, and incubated two days under the presence of 5% of CO2, at 37° C. until cells became confluent in the well. […] The medium was exchanged every 3 or 4 days. In order to determine the concentration of osteocalcin, culture supernatant of MC3T3-E1 cells cultured for 14 days under the above-mentioned conditions was used. Amount of osteocalcin in the culture supernatant was determined according to the procedure written on an instruction manual attached to the EIA kit.
# [10] = tested on: MφRAW264 cells; assay: Actin ring formation assay I; format: cell-based; conditions: 20 μM, 1 day after actin ring formation, MφRAW264 with ODF/RANKL and PD98059
# Experimental: After that, 0.1 mL of the medium including 100 ng/mL of ODF/RANKL and 20 μM PD98059 was added, and further incubated under the same condition (final concentration of RANKL was 50 ng/mL, and that of PD98059 10 μM). In order to promote the differentiation to the activated osteoclast, two days after the addition of ODF/RANKL and PD98059, the medium was exchanged to that including 50 ng/mL of ODF/RANKL as described above; then the plate was incubated until the actin ring, the activated structure of osteoclast, formation was confirmed. After actin ring was formed, honokiol prepared as the same as that prepared in the example 1 was added, and cultured further one day. […] One day after when honokiol was added to culture, TRAP staining of the tartrate resistant acid phosphatase (TRAP) in each well, similarly o those performed.
# [11] = mouse bone marrow M-CSF dependent cells, 50 ng/mL RANKL
smiles,measurement,setting,value
C=CCc1ccc(O)c(-c2ccc(O)c(CC=C)c2)c1 [honokiol],pit formation,[1],significantly decreased
same,ALP activity,[2],enhanced in dose dependent manner
same,IC50,[3]; [11],10 µM
same,TRAP activity (control %),[3]; [11],"inhibited, depending on the dose"
same,non-specific cytotoxicity (XTT assay),[4],did not show non-specific cytotoxicity
same,inhibition activity of acid phosphatase,[5],has the inhibition activity of the acid phosphatase
same,non-specific cytotoxicity to MφRAW264 cells,[6],does not show non-specific cytotoxicity
same,TRAP activity (control %),[7]; 3 days,dose-dependently inhibited
same,IC50,"[7]; MφRAW264 cells, RANKL 50 ng/mL, 3 days",15 µM
same,cell viability of MC3T3-E1 cells,[8],slightly decreased
same,expression level of osteocalcin,[9],enhanced
same,actin rings (activated structure of osteoclast),[10],destructed
C=CCc1ccc(O)c(-c2cc(CC=C)ccc2O)c1 [magnolol],IC50,[3]; Mus musculus,30 µM
same,TRAP activity (control %),[3]; [11],dose-dependently inhibited
same,non-specific cytotoxicity (XTT assay),[4]; mouse bone marrow M-CSF dependent cells,did not show the non-specific cytotoxicity
same,inhibition activity of acid phosphatase,[5],has the inhibition activity of the acid phosphatase
same,cell viability (ratio against control wells = 100),"[6]; MφRAW264 cells, XTT, 3 days, honokiol 3-30 μM, magnolol 20-60 μM",seldom decreased
same,non-specific cytotoxicity to MφRAW264 cells,"[6]; XTT, 3 days",does not show non-specific cytotoxicity
same,TRAP activity (control %),[7]; 3 days,dose-dependently inhibited
same,IC50,[7],30 µM
